From patent publication US8946268B2, “Modulators of HEC1 activity and methods therefor” (Taivex Therapeutics, Inc., priority 2010, dated 2015)

Assay: Combination of Hec1 inhibitors with chemotherapeutic inhibitors
Details: preliminary data

| Structure (SMILES) | effect in combination of Hec1 inhibitors with chemotherapeutic inhibitors |
| --- | --- |
| CC(=O)O[C@H]1C(=O)[C@@]2(C)[C@H]([C@H](OC(=O)c3ccccc3)[C@]3(O)C[C@H](OC(=O)[C@H](O)[C@@H](NC(=O)c4ccccc4)c4ccccc4)C(C)=C1C3(C)C)[C@]1(OC(C)=O)CO[C@@H]1C[C@@H]2O [Taxol] | synergistic effect |
| CC[C@]1(O)C[C@@H]2CN(CCc3c([nH]c4ccccc34)[C@@](C(=O)OC)(c3cc4c(cc3OC)N(C)[C@H]3[C@@](O)(C(=O)OC)[C@H](OC(C)=O)[C@]5(CC)C=CCN6CC[C@]43[C@@H]65)C2)C1 [vinblastine] | synergistic effect |
| CC[C@]1(O)C[C@H]2CN(CCc3c([nH]c4ccccc34)[C@@](C(=O)OC)(c3cc4c(cc3OC)N(C=O)[C@H]3[C@@](O)(C(=O)OC)[C@H](OC(C)=O)[C@]5(CC)C=CCN6CC[C@]43[C@@H]65)C2)C1 [vincristine] | synergistic effect |
